Consider six compounds from patent US6784137B2, “6-aryl-4-aminopicolinates and their use as herbicides” (Dow AgroSciences LLC, priority 2001, dated 2004).

As usually defined, the melting point is the temperature, or range, at which the solid turns liquid.

The test system of data set [1] is Barnyardgrass (Echinochloa crus-galli). Kind of data set: Postemergence herbicidal activity, greenhouse spray. The data set is classed as in vivo. To be noted: Echinochloa crus-galli, post-emergence, 336 h, visual score after 2 weeks, read-out: Post-emergent % control ECHCG; for pest or weed control at 500 ppm: rate 500 ppm. In outline: (§1)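 Test compounds, dissolved in 97:3 acetone/DMSO and serially diluted in an aqueous surfactant and crop oil mixture, were applied postemergence to young plants at the one- to two-true-leaf stage, with carrier-only sprays as controls.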

Data set [2] has as its system Cocklebur (Xanthium strumarium). Described as above. It counts as in vivo. Particulars: Xanthium strumarium, post-emergence, 336 h, visual score after 2 weeks, read-out: Post-emergent % control XANST; for pest or weed control at 500 ppm: rate 500 ppm, 0 no injury, 100 complete kill. In outline: as §1
Data set [3] concerns Yellow nutsedge (Cyperus esculentus). The data set is described as above. The data set is classed as in vivo. Particulars: Cyperus, post-emergence, 336 h, visual score after 2 weeks, read-out: Post-emergent % control CYPES; for pest or weed control at 500 ppm: rate 500 ppm. In outline:
as §1

In data set [4] the test system is Lambsquarter (Chenopodium album). The description is as above. The data set is classed as in vivo. To be noted: Chenopodium album, post-emergence, 336 h, visual score after 2 weeks, read-out: Post-emergent % control CHEAL; for pest or weed control at 500 ppm: rate 500 ppm. In outline:
as §1

Data set [5] has as its system Crabgrass(large) (Digitaria sanguinalis). Nature of the data set: Preemergence herbicidal activity, soil spray. The data set is classed as in vivo. Particulars: Digitaria sanguinalis, pre-emergence, 504 h, Table 5, visual score after 3 weeks, read-out: Pre-emergent % control DIGSA; for pest or weed control at 140 ppm: rate 140 ppm. The method, boiled down:
(§2)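 Seeds were sown in a 70:30 loam–sand mix (pH about 8.1, about 1.5% organic matter), and test compound from acetone:DMSO 97:3 stocks, diluted in 99.9:0.1 water:Tween 155, was sprayed evenly on the soil surface before emergence. Pots were held in a greenhouse under an approximate 15 hr photoperiod with top-irrigation.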

Data set [6] has as its system Pigweed (redroot) (Amaranthus retroflexus). Kind of data set: Preemergence herbicidal activity, soil spray. It counts as in vivo. To be noted: Amaranthus retroflexus, pre-emergence, 504 h, Table 5, visual score after 3 weeks, read-out: Pre-emergent % control AMARE; for pest or weed control at 140 ppm: rate 140 ppm. The method, boiled down: as §2
The subject of data set [7] is Giant Foxtail (Setaria faberi). Kind of data set: Preemergence herbicidal activity, soil spray. The data set is classed as in vivo. To be noted: Setaria faberi, pre-emergence, 504 h, Table 5, visual score after 3 weeks, read-out: Pre-emergent % control SETFA; for pest or weed control at 140 ppm: rate 140 ppm. In outline:
as §2

The test system of data set [8] is Lambsquarter (Chenopodium album). Kind of data set: Preemergence herbicidal activity, soil spray. The data set is classed as in vivo. To be noted: Chenopodium album, pre-emergence, 504 h, Table 5, visual score after 3 weeks, read-out: Pre-emergent % control CHEAL; for pest or weed control at 140 ppm: rate 140 ppm. In outline: as §2

For `COC(=O)c1nc(-c2ccc(Cl)cc2Cl)cc(N)c1Cl` [Compound 13, Methyl 4-amino-3-chloro-6-(2,4-dichlorophenyl)pyridine-2-carboxylate], the melting point lay in the range of 130 to 131 °C. Moreover, the pest or weed control at 250 ppm in data set [1] (Table 1, rate 250 ppm) was determined as 70%. In data set [2] (Table 1, rate 250 ppm), the pest or weed control at 250 ppm was 100%. Besides, in data set [3] (Table 1, rate 250 ppm), the pest or weed control at 250 ppm is 80%. The pest or weed control at 250 ppm in data set [4] (Table 1, rate 250 ppm) was 100%. For the same compound, the pest or weed control at 560 ppm in [5] (rate 560 ppm) stood at 90%. In addition, the pest or weed control at 560 ppm in data set [6] (rate 560 ppm) came out at 100%. Also, the pest or weed control at 560 ppm in [7] (rate 560 ppm) came to 100%. In addition, the pest or weed control at 560 ppm in [8] (rate 560 ppm, 100 complete kill or no germination) came to 100%.
With `Cc1ccc(-c2cc(N)c(Cl)c(C(=O)O)n2)c(F)c1` [Compound 158, 4-Amino-3-chloro-6-(2-fluoro-4-methylphenyl)pyridine-2-carboxylic acid], the melting point lay within 187 to 189 °C. Besides, the pest or weed control at 500 ppm in data set [1] (Table 1) stood at 95%. Further, the pest or weed control at 500 ppm in data set [2] (Table 1) is 100%. For the same compound, the pest or weed control at 500 ppm in [3] (Table 1) is 70%. The pest or weed control at 500 ppm in data set [4] (Table 1) is 100%. Besides, the pest or weed control at 140 ppm in data set [5] came to 98%. In addition, the pest or weed control at 140 ppm in data set [6] was found to be 100%. Moreover, the pest or weed control at 140 ppm in [7] amounted to 100%. For the same compound, the pest or weed control at 140 ppm in data set [8] worked out at 100%.
`Cc1cc(-c2cc(N)c(Cl)c(C(=O)O)n2)ccc1Cl` [Compound 149, 4-Amino-3-chloro-6-(4-chloro-3-methylphenyl)pyridine-2-carboxylic acid] displayed a melting point of 190 to 191 °C. Besides, the pest or weed control at 500 ppm in data set [1] (Table 1) came to 95%. Besides, in data set [2] (Table 1), the pest or weed control at 500 ppm amounted to 100%. For the same compound, in data set [3] (Table 1), the pest or weed control at 500 ppm is 100%. In data set [4] (Table 1), the pest or weed control at 500 ppm worked out at 100%. Also, in [5], the pest or weed control at 140 ppm stood at 100%. Also, the pest or weed control at 140 ppm in [6] was determined as 100%. The pest or weed control at 140 ppm in data set [7] was 100%. Also, the pest or weed control at 140 ppm in data set [8] was found to be 100%.
Take `Nc1c(F)c(C(=O)O)nc(-c2ccccc2Cl)c1F` [Compound 202, 4-Amino-3,5-difluoro-6-(6-chlorophenyl)pyridine-2-carboxylic acid]: the melting point is 166 to 167 °C (dec.). Moreover, in [1] (Table 1), the pest or weed control at 500 ppm stood at 100%. Further, the pest or weed control at 125 ppm in data set [1] (Table 2, rate 125 ppm) came out at 70%. Further, the pest or weed control at 500 ppm in data set [2] (Table 1) was found to be 100%. Moreover, in [2] (Table 2, rate 125 ppm), the pest or weed control at 125 ppm worked out at 100%. In data set [3] (Table 1), the pest or weed control at 500 ppm stood at 95%. For the same compound, the pest or weed control at 125 ppm in [3] (Table 2, rate 125 ppm) turned out to be 80%. In addition, the pest or weed control at 500 ppm in [4] (Table 1) stood at 100%. For the same compound, the pest or weed control at 125 ppm in data set [4] (Table 2, rate 125 ppm) amounted to 100%. The pest or weed control at 140 ppm in [5] turned out to be 100%. In addition, in [6], the pest or weed control at 140 ppm came to 100%. Besides, the pest or weed control at 140 ppm in data set [7] was determined as 95%. Moreover, the pest or weed control at 140 ppm in data set [8] stood at 95%.
In turn, `COC(=O)c1nc(-c2ccc(F)c(Cl)c2)cc(N)c1Cl` [Compound 39, Methyl 4-amino-3-chloro-6-(3-chloro-4-fluorophenyl)pyridine-2-carboxylate] came in with a melting point of 169 to 170 °C. In addition, the pest or weed control at 500 ppm in data set [1] (Table 1) is 95%. In addition, the pest or weed control at 500 ppm in data set [2] (Table 1) was 100%. For the same compound, the pest or weed control at 500 ppm in [3] (Table 1) was determined as 99%. Further, in data set [4] (Table 1), the pest or weed control at 500 ppm amounted to 100%. For the same compound, the pest or weed control at 140 ppm in [5] worked out at 95%. Further, the pest or weed control at 140 ppm in [6] is 100%. For the same compound, the pest or weed control at 140 ppm in data set [7] was 75%. The pest or weed control at 140 ppm in [8] was 95%.
On to `Nc1cc(-c2ccc(Cl)cc2F)nc(C(=O)O)c1Cl` [Compound 168, 4-Amino-3-chloro-6-(4-chloro-2-fluorophenyl)pyridine-2-carboxylic acid], for which the melting point lay in the range of 162 to 163 °C. Moreover, the pest or weed control at 500 ppm in data set [1] (Table 1) came to 85%. Further, the pest or weed control at 500 ppm in data set [2] (Table 1) amounted to 100%. The pest or weed control at 500 ppm in data set [3] (Table 1) turned out to be 90%. In data set [4] (Table 1), the pest or weed control at 500 ppm amounted to 100%. Further, the pest or weed control at 140 ppm in [5] was 100%. The pest or weed control at 140 ppm in data set [6] stood at 100%. Further, the pest or weed control at 140 ppm in data set [7] was found to be 100%. Also, the pest or weed control at 140 ppm in data set [8] stood at 100%.
